Measured values taken from patent publication US9587220B2, “Method for inducing cardiac differentiation of pluripotent stem cell” (Kyoto University, priority 2012, dated 2017).
“Also recorded” adds a separate entry of the source.

What was measured:
Assay type in all cases: cell-based, human
[1] = test system: IMR90-1 hiPSCs; assay: Beating colonies of hiPSCs (IMR90-1) in serum-containing cardiac differentiation; details: for proportions of beating colonies: hiPSCs; for proportions of beating colonies with BIO: with 5 μM BIO (GSK3β inhibitor)
Method: Confluent hESCs and hiPSCs were gently detached with CTK solution and transferred into Petri dishes (BD Biosciences) with Primate ES Cell Culture Medium (ReproCELL, Japan). Cells were held in suspension culture for 8-24 h to form aggregates. The sizes of hPSC aggregates (0.3-1 mm in diameter) are important for efficient differentiation. Following suspension culture, cell aggregates were attached to culture dishes (3-10×10^5 cells cm^−2) in cardiac differentiation medium: IMDM (Sigma), containing 20% FBS (Gibco), 1% MEM non-essential amino acid solution (Sigma), 1% Penicillin-Streptomycin (Gibco), 2 mM L-glutamine (Sigma), 0.001% 2-Mercaptoethanol (Gibco), and 0.005N NaOH, with 10 ng ml^−1 BMP4 (R&D Systems). The medium was changed to cardiac differentiation medium with 10 μM KY02111 and/or other WNT inhibitors added on Day 3 (hiPSC lines) or Day 4 (human or monkey ESC lines); XAV939 (Wako, Japan), IWP-2 (Santa Cruz Biotechnology), IWR-1 (Merck4Bioscience), IGFBP4 (R&D Systems), Dkk1 (R&D Systems) and the mixture of bFGF (R&D Systems), BMP4 (R&D Systems), VEGF (R&D Systems), DKK1 (R&D Systems), and Activin A (R&D Systems) (Non-patent literature 16). Medium was changed every 2-3 d. KY02111 and other WNT inhibitors were added until Day 9 for hiPSC lines and the monkey ESC line, or Day 14 for hESC lines. On Day 15, cardiac cell colonies on dishes were incubated with protease solution (0.1% collagenase type I, 0.25% trypsin, 1 U ml^−1 DNase I, 116 mM NaCl, 20 mM HEPES, 12.5 mM NaH2PO4, 5.6 mM glucose, 5.4 mM KCl, and 0.8 mM MgSO4, pH 7.35) for 0.5-2 h, until all cardiac colonies were detached from the bottom of the wells. The detached cardiac colonies were transferred into 15 ml tubes with fresh cardiac differentiation medium and precipitated by gravity, and the supernatant was removed by aspiration. The cardiac colonies were then transferred into Ultra-low culture dishes (Corning, 3261) or 6-well plates (Corning, YO-01835-24) in cardiac differentiation medium without both serum and NaOH. The floating cardiac colonies were maintained for more than 1 month, and the media were changed every 5 d. A differentiation method of mouse ESC (R1 line) was carried out as previously described^46, and KY02111 was added during Days 3-6. Beating colonies were counted on Day 9.

[2] = test system: WNT target genes in IMR90-1 hiPSCs; assay: Microarray and qPCR gene expression of WNT target genes; details: for expression levels of WNT target genes by qPCR: 12, 24 and 72 h after treatment
Method: IMR90-1 iPSCs were cultured in cardiac differentiation medium containing serum. On Day 3, cells were treated with 10 μM KY02111 or 0.1% DMSO for 0, 12, or 24 h. Non-treated cells (0 h), cells treated with KY02111 for 12 h (KY12hr) or 24 h (KY24hr), and cells treated with 0.1% DMSO for 12 h (DMSO12hr) or 24 h (DMSO24hr) were used for microarray analysis. Total RNA was prepared using the RNeasy Mini Kit (Qiagen), according to the manufacturer's instructions. Synthesis of cDNA, in vitro transcription and biotin labeling cRNA, and hybridization to the Human Gene 1.0 ST array (Affymetrix) were performed according to Affymetrix protocols. Hybridized arrays were scanned using an Affymetrix GeneChip Scanner. Data normalization and further analysis were performed with GeneSpring GX (Agilent Technologies). Proportions of treated cells expressing genes relative to control (KY02111/DMSO) were calculated for each time point. […] The microarray data have been submitted to the Gene Expression Omnibus (GEO) public database at NCBI (GEO accession number, GSE33622).
Total RNA was isolated with an RNeasy Mini Kit (QIAGEN). Genomic DNA was completely digested with DNase I (Invitrogen). Total RNA (0.5 μg) was subjected to cDNA synthesis using the SuperScript III Reverse Transcriptase (Invitrogen). qRT-PCR was performed in triplicate, using SYBER GREEN PCR Master Mix on a 7500 Real Time PCR System (Applied Biosystems). The cycling conditions were as follows: 10 min at 95° C.; 40 cycles, each consisting of 15 s at 95° C.; 1 min at 60° C. Total RNA from human adult heart tissue (BioChain) was used to evaluate the expression levels of cardiac marker genes for cardiomyocytes derived from hPSCs. All values were normalized with respect to GAPDH expression level and expressed relative to the corresponding values in human adult hearts (100%).

[3] = test system: TCF promoter activity (canonical WNT signaling) in IMR90-1 hiPSCs; assay: TOPflash TCF reporter-luciferase assay in hiPSCs; details: 10 μM, with 60 ng/ml Wnt3a or 3 μM BIO
Method: For the TCF reporter assay, IMR90-1 hiPSCs were cultured in the serum-containing differentiation culture, as described above, and transfected with TOPFlash plasmid (Millipore 21-170) and pRL-SV40 plasmid (Renilla luciferase transfection control, Promega E1980) on Day 2, using FuGENE HD transfection Reagenet (Promega E2311). After 24 h, 10 μM KY02111, 10 μM XAV939, or 10 μM IWP-2 was added to the medium, along with either 60 ng ml^−1 of mouse Wnt3a (Wako 232-02421) or 3 μM BIO. After 48 h of transfection (Day 4), luciferase activities were measured using a Dual-Luciferase Reporter 1000 Assay System kit (Promega E1980) and a 2030 ARVO X3 plate reader (PerkinElmer). Luciferase activities were normalized to the luminescence of the transfection control, Rennila luciferase, according to the kit protocol. For experiments using HEK293 cells, the cells were cultured in 10% FBS DMEM medium, and transfected with TOPflash and pRL-SV40 plasmid, using FuGENE HD. After 24 h, the transfected cells were seeded onto 96-well plates (10,000 cells well^−1) in medium containing 10 μM KY02111, 10 μM XAV939, or 10 μM IWP-2, along with 3 μM BIO or 60 ng ml^−1 mouse Wnt3a. Luciferase activities were measured 48 h after transfection by the procedure described above.

Compound | promotion of cardiac differentiation of hiPSCs compared with other WNT inhibitors ([1]; FIG. 3d) | proportion of beating colonies after subculture ([1]; floating culture of beating colonies, FIG. 6) | proportions of beating colonies ([1]; FIG. 3d) [%] | day on which beating colonies emerged ([1]; time course, FIG. 6) [days] | day until which cardiac colonies continued beating ([1]; time course, FIG. 6) [days] | proportions of beating colonies with BIO ([1]; FIG. 3d) | number of genes changed >25% at both 12 and 24 h (microarray) ([2]; 10 μM, versus DMSO) [genes] | expression levels of WNT target genes by qPCR [2] | TCF promoter (luciferase) activity elevated by Wnt3a or BIO [3]
COc1ccc(CCC(=O)Nc2nc3ccc(Cl)cc3s2)cc1OC [KY02111, 2-(3-(3,4-dimethoxyphenyl)propanamide)-6-chlorobenzothiazole] | most effective | up to 90% | 87 | 10 | ≥ 50 | did not cancel | 26 | suppressed | clearly reduced luciferase activities; also recorded: inhibited
Cc1ccc2nc(NC(=O)CSc3nc4c(c(=O)n3-c3ccccc3)SCC4)sc2c1 [IWP-2, reference compound] |  |  | 37 |  |  | completely inhibit |  | suppressed | didn't inhibit
Oc1nc(-c2ccc(C(F)(F)F)cc2)nc2c1CSCC2 [XAV939, reference compound] |  |  | 7.5 |  |  | completely inhibit |  | suppressed | clearly reduced luciferase activities; also recorded: inhibited
